The test system of this assay is CD2F1 mice, L1210 leukemia ip, survival T/C. In words: NCI In Vivo Anticancer Drug Screen. Data for tumor model L1210 Leukemia (intraperitoneal) in CD2F1 (CDF1) mice. The following applies: higher = longer survival. The method in brief: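 Implant tumor; dose compound or vehicle; measure endpoint in both groups; report treated divided by control.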
The mark [1] stands for this setting: endpoint: mean survival time, dose: 100.0 mg/kg/injection, schedule: Q01DX009 (ip), vehicle: saline.
Where [2] appears, read: endpoint: mean survival time, dose: 200.0 mg/kg/injection, schedule: Q01DX009 (ip), vehicle: saline.
[3] abbreviates: endpoint: mean survival time, dose: 400.0 mg/kg/injection, schedule: Q01DX009 (ip), vehicle: saline.
Setting [4] is: endpoint: mean survival time, dose: 100.0 mg/kg/injection, schedule: Q01DX009 (ip), vehicle: saline with Tween-80.
[5] abbreviates: endpoint: mean survival time, dose: 100.0 mg/kg/injection, schedule: Q04DX003 (ip), vehicle: saline with Tween-80.
Where [6] appears, read: endpoint: mean survival time, dose: 200.0 mg/kg/injection, schedule: Q01DX009 (ip), vehicle: saline with Tween-80.
[7] abbreviates: endpoint: mean survival time, dose: 200.0 mg/kg/injection, schedule: Q04DX003 (ip), vehicle: saline with Tween-80.
The mark [8] stands for this setting: endpoint: mean survival time, dose: 400.0 mg/kg/injection, schedule: Q04DX003 (ip), vehicle: saline with Tween-80.
Where [9] appears, read: endpoint: mean survival time, dose: 50.0 mg/kg/injection, schedule: Q01DX009 (ip), vehicle: saline with Tween-80.
[10] abbreviates: endpoint: mean survival time, dose: 75.0 mg/kg/injection, schedule: Q01DX001 (ip), vehicle: saline.
Where [11] appears, read: endpoint: mean survival time, dose: 150.0 mg/kg/injection, schedule: Q01DX001 (ip), vehicle: saline.
Where [12] appears, read: endpoint: mean survival time, dose: 12.5 mg/kg/injection, schedule: Q01DX009 (ip), vehicle: saline.
[13] abbreviates: endpoint: mean survival time, dose: 25.0 mg/kg/injection, schedule: Q01DX009 (ip), vehicle: saline.
[14] abbreviates: endpoint: mean survival time, dose: 50.0 mg/kg/injection, schedule: Q01DX009 (ip), vehicle: saline.
Where [15] appears, read: endpoint: mean survival time, dose: 100.0 mg/kg/injection, schedule: Q01DX009 (ip), vehicle: saline sonified.
Setting [16] is: endpoint: mean survival time, dose: 100.0 mg/kg/injection, schedule: Q01DX001 (ip), vehicle: saline with Tween-80.
Where [17] appears, read: endpoint: mean survival time, dose: 200.0 mg/kg/injection, schedule: Q01DX001 (ip), vehicle: saline with Tween-80.
The mark [18] stands for this setting: endpoint: mean survival time, dose: 400.0 mg/kg/injection, schedule: Q01DX001 (ip), vehicle: saline with Tween-80.

Several values for one entry are separate records, joined by “and”; a condition that tells them apart may be missing. Equal entries are not always repeated. Toxic doses and inconclusive results are not listed.

Consider `O=C1C(NCC(O)CO)=C(N2CC2)C(=O)C(NCC(O)CO)=C1N1CC1` (stereo unspecified), for which the T/C by setting is: (endpoint: mean survival time, dose: 1.25 mg/kg/injection, schedule: Q01DX009 (oral), vehicle: saline) 91 % of control and 103 % of control; (endpoint: mean survival time, dose: 2.5 mg/kg/injection, schedule: Q01DX009 (oral), vehicle: saline) 98 % of control; (endpoint: mean survival time, dose: 10.0 mg/kg/injection, schedule: Q01DX009 (oral), vehicle: saline) 109 % of control; (endpoint: mean survival time, dose: 20.0 mg/kg/injection, schedule: Q01DX009 (oral), vehicle: saline) 104 % of control and 105 % of control; (endpoint: median survival time, dose: 0.5 mg/kg/injection, schedule: Q01DX009 (ip), vehicle: saline) 123 % of control; (endpoint: median survival time, dose: 2.0 mg/kg/injection, schedule: Q01DX009 (ip), vehicle: saline) 163 % of control. Also, the T/C runs as follows: (endpoint: median survival time, dose: 4.0 mg/kg/injection, schedule: Q01DX009 (ip), vehicle: saline) 228 % of control; (endpoint: median survival time, dose: 8.0 mg/kg/injection, schedule: Q01DX009 (ip), vehicle: saline) 195 % of control.

As to `OC1C2COC(O2)C(O)C1O` (stereo unspecified) (tested in a mixture with another compound), the T/C under setting [1] was 93 % of control, the T/C under setting [2] was 91 % of control and the T/C under setting [3] is 91 % of control.

For `CC(=O)OCC1OC(OC(C)=O)C(OC(C)=O)C(OC(C)=O)C1OC(C)=O` (stereo unspecified), the T/C runs as follows: (endpoint: mean survival time, dose: 100.0 mg/kg/injection, schedule: Q04DX003 (ip), vehicle: saline) 95 % of control; (endpoint: mean survival time, dose: 200.0 mg/kg/injection, schedule: Q04DX003 (ip), vehicle: saline) 98 % of control; (endpoint: mean survival time, dose: 400.0 mg/kg/injection, schedule: Q04DX003 (ip), vehicle: saline) 97 % of control.

In the case of `Cc1ccc(-c2c(O)c(Br)c(-c3ccc(C)cc3C)c(O)c2Br)c(C)c1`, the T/C by setting is: under setting [4], 97 % of control; under setting [5], 93 % of control; under setting [6], 97 % of control; under setting [7], 90 % of control; (endpoint: mean survival time, dose: 400.0 mg/kg/injection, schedule: Q01DX009 (ip), vehicle: saline with Tween-80) 94 % of control; under setting [8], 92 % of control.

`O=C(/C=C/c1ccc(Cl)cc1)c1ccc(Cl)cc1`: the T/C reads like this: under setting [5], 98 % of control; under setting [7], 90 % of control; under setting [8], 93 % of control.

For the compound `CC(Cc1ccccc1)NC1=NCCO1` (stereo unspecified), the T/C under setting [9] was 96 % of control; the T/C under setting [4] was 104 % of control; the T/C under setting [5] was 104 % of control and 98 % of control and 89 % of control; the T/C under setting [6] was 93 % of control; the T/C under setting [7] was 91 % of control and 87 % of control; the T/C under setting [8] was 86 % of control.

Take `O=C(CNC(=O)Nc1cccc([N+](=O)[O-])c1)N/N=C/c1ccncc1`: the T/C reads like this: under setting [9], 89 % of control; under setting [4], 89 % of control; under setting [6], 93 % of control.

Turning to `CC(C)CCNCCO`, the T/C is, setting by setting: under setting [10], 102 % of control; under setting [11], 102 % of control.

As for `CC1(C)OC(=O)N(CO)C1=O`, the T/C under setting [12] is 100 % of control and 103 % of control; the T/C under setting [13] is 97 % of control and 102 % of control; the T/C under setting [14] was 100 % of control and 102 % of control; the T/C under setting [1] was 114 % of control and 111 % of control; the T/C under setting [2] was 120 % of control and 111 % of control; the T/C under setting [3] was 91 % of control and 97 % of control.

For the compound `CCCC1CC[N-]CC1.CCCC1CC[N-]CC1.[Cl][Cu][Cl]`, the T/C was 96 % of control (endpoint: mean survival time, dose: 3.13 mg/kg/injection, schedule: Q01DX009 (ip), vehicle: saline) and 94 % of control under setting [12].

Consider `CC(C)c1cc2c(cc1O)C1(C)CCCC(C)(C#N)C1CC2` (stereo unspecified), for which the T/C under setting [15] was 95 % of control; the T/C (endpoint: mean survival time, dose: 200.0 mg/kg/injection, schedule: Q01DX009 (ip), vehicle: saline sonified) is 89 % of control; the T/C (endpoint: mean survival time, dose: 400.0 mg/kg/injection, schedule: Q01DX009 (ip), vehicle: saline sonified) was 91 % of control.

For `Cc1c2cnccc2c(C)c2c1c1ccccc1n2CCNCCO`, the T/C is 113 % of control (endpoint: mean survival time, dose: 50.0 mg/kg/injection, schedule: Q01DX009 (ip), vehicle: saline sonified) and 87 % of control under setting [15].

With `Clc1ncnc2c1ncn2C1CCCCO1` (stereo unspecified), the T/C (endpoint: mean survival time, dose: 176.0 mg/kg/injection, schedule: Q01DX009 (ip), vehicle: other) was 117 % of control.

`CC1(C)SC(C(NC(=O)Cc2ccccc2)C(=O)O)NC1C(=O)O` (stereo unspecified): the T/C was 101 % of control under setting [5], 103 % of control under setting [7] and 95 % of control under setting [8].

With `O=C(O)C(O)(O)C(=O)O`, the T/C reads like this: under setting [16], 102 % of control; under setting [17], 102 % of control; under setting [18], 102 % of control.

For `CCCC(C#CCN(C)C)N(C)C` (stereo unspecified), the T/C was 97 % of control under setting [12], 97 % of control under setting [13] and 98 % of control under setting [14].

In the case of `CNC(=S)NNc1ccc(Cl)cc1`, the T/C by setting is: (endpoint: mean survival time, dose: 12.5 mg/kg/injection, schedule: Q01DX009 (ip), vehicle: other) 96 % of control; (endpoint: mean survival time, dose: 25.0 mg/kg/injection, schedule: Q01DX009 (ip), vehicle: other) 94 % of control; (endpoint: mean survival time, dose: 50.0 mg/kg/injection, schedule: Q01DX009 (ip), vehicle: other) 93 % of control; (endpoint: mean survival time, dose: 100.0 mg/kg/injection, schedule: Q01DX009 (ip), vehicle: other) 104 % of control.

In the case of `CCC(C)OC(=O)CCl` (stereo unspecified), the T/C (endpoint: mean survival time, dose: 75.0 mg/kg/injection, schedule: Q01DX001 (ip), vehicle: other) was 97 % of control and the T/C (endpoint: mean survival time, dose: 150.0 mg/kg/injection, schedule: Q01DX001 (ip), vehicle: other) was 96 % of control.

For the compound `CC12CCC(=O)C=C1CCCC2=O` (stereo unspecified), the T/C is 98 % of control under setting [14] and 96 % of control under setting [1].

For the compound `OC(COc1ccc(Cl)cc1Cl)COc1ccc(Cl)cc1Cl`, the T/C was 95 % of control under setting [5], 92 % of control under setting [7] and 93 % of control under setting [8].

With `CC(=O)N[C@H](CO)[C@H](O)c1ccc([N+](=O)[O-])cc1`, the T/C (endpoint: mean survival time, dose: 75.0 mg/kg/injection, schedule: Q01DX009 (ip), vehicle: saline with Tween-80) is 96 % of control; the T/C (endpoint: mean survival time, dose: 150.0 mg/kg/injection, schedule: Q01DX009 (ip), vehicle: saline with Tween-80) is 96 % of control; the T/C (endpoint: mean survival time, dose: 300.0 mg/kg/injection, schedule: Q01DX009 (ip), vehicle: saline with Tween-80) was 95 % of control.

As to `CO[C@@H]1C2=CC=CC=C[C@H]2n2c(=O)n(C)c(=O)n21`, the T/C reads like this: (endpoint: median survival time, dose: 37.5 mg/kg/injection, schedule: Q01DX005 (ip), vehicle: other) 95 % of control; (endpoint: median survival time, dose: 75.0 mg/kg/injection, schedule: Q01DX005 (ip), vehicle: other) 100 % of control; (endpoint: median survival time, dose: 150.0 mg/kg/injection, schedule: Q01DX005 (ip), vehicle: other) 95 % of control.

Take `N#CCCCN=[N+]=[N-]`: the T/C runs as follows: under setting [10], 96 % of control; under setting [11], 101 % of control.

In the case of `CN(C)c1ccc2c(c1)Oc1cc(N(C)C)ccc1C21OC(=O)c2ccccc21`, the T/C runs as follows: under setting [16], 97 % of control; under setting [17], 101 % of control; under setting [18], 97 % of control.

`CCCCNC(=S)Nc1ccccc1`: the T/C is, setting by setting: under setting [9], 100 % of control; under setting [4], 105 % of control; under setting [6], 86 % of control.

As to `Cc1cc[n+](C)c(-c2ccccc2)c1`, the T/C is, setting by setting: (endpoint: mean survival time, dose: 6.25 mg/kg/injection, schedule: Q01DX009 (ip), vehicle: saline sonified) 100 % of control; (endpoint: mean survival time, dose: 12.5 mg/kg/injection, schedule: Q01DX009 (ip), vehicle: saline sonified) 101 % of control; (endpoint: mean survival time, dose: 25.0 mg/kg/injection, schedule: Q01DX009 (ip), vehicle: saline sonified) 109 % of control.

Turning to `O=NNc1cccnc1`, the T/C is 96 % of control (endpoint: median survival time, dose: 6.25 mg/kg/injection, schedule: Q01DX009 (ip), vehicle: water); 99 % of control (endpoint: median survival time, dose: 12.5 mg/kg/injection, schedule: Q01DX009 (ip), vehicle: water); 99 % of control (endpoint: median survival time, dose: 25.0 mg/kg/injection, schedule: Q01DX009 (ip), vehicle: water).

As to `CC(=O)OCC1OC(n2cnc3[nH]c(=S)[nH]c(=S)c32)C(OC(C)=O)C1OC(C)=O` (stereo unspecified), the T/C is 103 % of control (endpoint: mean survival time, dose: 100.0 mg/kg/injection, schedule: Q01DX001 (ip), vehicle: saline); 96 % of control (endpoint: mean survival time, dose: 200.0 mg/kg/injection, schedule: Q01DX001 (ip), vehicle: saline); 97 % of control (endpoint: mean survival time, dose: 400.0 mg/kg/injection, schedule: Q01DX001 (ip), vehicle: saline).

The values above are taken from PubChem BioAssay AID256 (DTP/NCI, 2004).
